Two compounds from ChEMBL document CHEMBL3112504, “Design, structural and biological characterization of a VEGF inhibitor β-hairpin-constrained peptide” (2014) can be followed below.

Active and inactive are the calls of the source. No cut-off for these calls is given here. Peptide text beside a SMILES is read from it. A value given as a limit tells only on which side of the number the result lay.

For assay [1], the system named is HUVEC. As to the kind of experiment: Induction of proapoptosis in VEGF-treated HUVEC assessed as increase in caspase 3 activity after 8 hrs by fluorimetric assay. The assay is classed as functional, cell-based. As to conditions: Homo sapiens.
For assay [2], the system named is HUVEC. Put plainly: Induction of proapoptosis in HUVEC assessed as increase in caspase 3 activity at 25 to 100 ng/ml after 8 hrs by fluorimetric assay. The assay is classed as functional, cell-based. As to conditions: Homo sapiens.
The test system of assay [3] is HUVEC. As to the kind of experiment: Induction of proapoptosis in VEGF-treated HUVEC assessed as increase in caspase 3 activity at 25 to 100 ng/ml after 8 hrs by fluorimetric assay. The assay is classed as functional, cell-based. As to conditions: Homo sapiens.
Assay [4] relates to HUVEC. Put plainly: Inhibition of VEGFR in HUVEC assessed as reduction in VEGF-induced ERK1/2 phosphorylation at 25 to 100 ng/ml after 15 mins by Western blotting analysis. The assay is classed as cell-based. As to conditions: Homo sapiens.
The test system of assay [5] is HUVEC. Put plainly: Inhibition of VEGFR in HUVEC assessed as reduction in ERK1/2 phosphorylation at 25 to 100 ng/ml after 15 mins by Western blotting analysis. Format: cell-based. As to conditions: Homo sapiens. A general note: In western blotting, separated proteins are transferred to a membrane and probed.
Assay [6] has as its system HUVEC. Put plainly: Inhibition of VEGFR in HUVEC assessed as reduction in VEGF-induced Akt phosphorylation at 25 to 100 ng/ml after 15 mins by Western blotting analysis. As to conditions: Homo sapiens. The assay is classed as cell-based.
Assay [7] has as its system HUVEC. Put plainly: Inhibition of VEGF-induced HUVEC proliferation at 50 to 100 […] after 48 hrs by CyQuant cell proliferation assay. Format: functional, Homo sapiens.
Assay [8] deals with HUVEC. As to the kind of experiment: Inhibition of VEGFR in HUVEC assessed as reduction in Akt phosphorylation at 25 to 100 ng/ml after 15 mins by Western blotting analysis. The assay is classed as cell-based. As to conditions: Homo sapiens.
The test system of assay [9] is HUVEC. Put plainly: Inhibition of VEGFR in HUVEC assessed as reduction in VEGF-induced Akt phosphorylation at 100 ng/ml after 15 mins by Western blotting analysis. Format: cell-based. As to conditions: Homo sapiens.
Assay [10] has as its system HUVEC. As to the kind of experiment: Induction of proapoptosis in VEGF-treated HUVEC assessed as increase in caspase 3 activity at 100 ng/ml after 8 hrs by fluorimetric assay. The assay is classed as functional, cell-based. As to conditions: Homo sapiens.
The test system of assay [11] is HUVEC. Put plainly: Inhibition of VEGFR in HUVEC assessed as reduction in VEGF-induced ERK1/2 phosphorylation at 100 ng/ml after 15 mins by Western blotting analysis. Format: cell-based. As to conditions: Homo sapiens.

As for `CC[C@H](C)[C@H](NC(=O)[C@H](Cc1c[nH]c2ccccc12)NC(=O)[C@H](CC(C)C)NC(=O)[C@H](CS)NC(=O)[C@H](CCC(N)=O)NC(=O)[C@@H](N)CCCCN)C(=O)N[C@@H](CCCNC(=N)N)C(=O)N[C@@H](CO)C(=O)NCC(=O)N[C@@H](CC(=O)O)C(=O)N[C@@H](CCCNC(=N)N)C(=O)N1CCC[C@H]1C(=O)N[C@@H](Cc1c[nH]c2ccccc12)C(=O)N[C@@H](Cc1ccc(O)cc1)C(=O)N[C@@H](CS)C(=O)N[C@H](C(=O)N[C@@H](CO)C(=O)O)[C@@H](C)O` (H-KQCLWIRSGDRPWYCTS-OH), the Activity entry in the assay on HUVEC [1] was “Dose-dependent effect”. In addition, in the assay on HUVEC [2], the outcome was inactive. For the same compound, the outcome in the assay on HUVEC [3] was Active. The inhibition entry with HUVEC [4] and in the assay with HUVEC [6] was “Active” throughout. Besides, the inhibition result in the assay on HUVEC [5] and with HUVEC [8] was “inactive” in each case. The “inhibition (INH)” value in the assay on HUVEC [7] is listed as more than 95%.
On to H-KPDRWSQWRSTYSLSIG-OH, for which the inhibition result with HUVEC [9], in the assay on HUVEC [7] (Homo sapiens) and in the assay with HUVEC [11] was “inactive” each time. Moreover, the result with HUVEC [10] was inactive.
